According to patent US20250195483A1, “SPIRO PIPERIDINE DERIVATIVES AS INHIBITORS OF APOL1 AND METHODS OF USING SAME” (Vertex Pharmaceuticals Incorporated, priority 2022, published 2025):

Target: T1, APOL1 (Homo sapiens, UniProt O14791)
T1 sequence (O14791 1-398): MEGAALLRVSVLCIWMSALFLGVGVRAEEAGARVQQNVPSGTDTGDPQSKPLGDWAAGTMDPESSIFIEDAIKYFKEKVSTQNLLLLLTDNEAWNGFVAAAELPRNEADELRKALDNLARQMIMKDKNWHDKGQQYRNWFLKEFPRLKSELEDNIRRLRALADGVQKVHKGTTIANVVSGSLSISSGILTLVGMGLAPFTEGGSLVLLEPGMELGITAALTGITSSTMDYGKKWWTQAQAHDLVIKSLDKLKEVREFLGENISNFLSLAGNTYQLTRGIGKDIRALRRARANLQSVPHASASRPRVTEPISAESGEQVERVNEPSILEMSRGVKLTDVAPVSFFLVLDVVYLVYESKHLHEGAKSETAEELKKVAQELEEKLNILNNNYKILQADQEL
Assay: MultiTox-Fluor Multiplex Cytotoxicity Assay, tet-inducible APOL1 T-REx-HEK293 cells (G0, G1 or G2 clone not specified for Table 20)
Assay type: cell-based
Conditions: tet-induced, 24 hours with compound, ratio of dead to live cells, read-out: IP50 (i.e., IC50 for cell proliferation)
Method in brief: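 HEK293 T-REx cells with tet-inducible APOL1 G0, G1 or G2 clone, 23,400/well, treated with tetracycline plus compound (top 10 μM, 10-point 3-fold, duplicate) for 24 h at 37° C. MultiTox-Fluor dead/live fluorescence ratio, normalized to no-tet (100% viability) and 50 ng/mL tet (0% viability) controls, then curve-fitted.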

Structure (SMILES)	IC50
CN1C(=O)C2(CCN(Cc3cnn(C)c3)CC2)c2cc(Cl)ccc21 [Compound 39]	50 to 500 nM
COc1cncc(CN2CCC3(CC2)C(=O)Nc2ccc(Cl)cc23)c1 [Compound 5]	≥ 500 nM
CNS(=O)(=O)CCn1cc(CN2CC[C@]3(C[C@@H]2C)OCCc2ccc(Cl)cc23)cn1 [Compound 126]	≤ 50 nM
C[C@H]1C[C@@]2(CCN1Cc1cn(CC3(CO)CC3)nn1)OCCc1ccc(Cl)cc12 [Compound 148]	≤ 50 nM
CN1C(=O)C2(CCN(Cc3cnn(CCS(N)(=O)=O)c3)CC2)c2ccccc21 [Compound 72, 2-(4-((I-methyl-2-oxospiro[indoline-3,4′-piperidin]-1′-yl)methyl)-1H-pyrazol-1-yl)ethane-1-sulfonamide]	≥ 500 nM
CS(=O)(=O)CCn1cc(CN2CCC3(CC2)C(=O)Nc2c(CO)cc(Cl)cc23)cn1 [Compound 29]	≤ 50 nM
CNC(=O)C1OC2(CCN(Cc3cnn(-c4ccccc4)c3)CC2)c2cc(OC)ccc21 (centres unmarked) [Compound 297, 6-methoxy-N-methyl-1′-((1-phenyl-1H-pyrazol-4-yl)methyl)-3H-spiro[isobenzofuran-1,4′-piperidine]-3-carboxamide]	≥ 500 nM
CC(=O)Nc1ccc(CN2CCC3(CC2)C(=O)Nc2ccc(Cl)cc23)cc1 [Compound 6]	50 to 500 nM
C[C@H]1C[C@@]2(CCN1Cc1cn(C(CO)CO)nn1)OCCc1ccc(Cl)cc12 [Compound 151]	≥ 500 nM
CS(=O)(=O)CCn1cc(CN2CCC3(CC2)C(=O)Nc2ccc(C(F)C(F)F)cc23)cn1 (centres unmarked) [Compound 32]	≥ 500 nM
CS(=O)(=O)CCn1cc(CN2CCC3(CC2)C(=O)Nc2ccc(Cl)cc23)cn1 [Compound 1, 5-chloro-1′-[[1-(2-methylsulfonylethyl)pyrazol-4-yl]methyl]spiro[indoline-3,4′-piperidine]-2-one]	50 to 500 nM
C[C@H]1CC2(CCN1Cc1cnn(CCS(C)(=O)=O)c1)CC(O)c1ccc(Cl)cc12 (single isomer, unassigned) [Compound 306, (2′S)-5-chloro-2′-methyl-1′-[[1-(2-methylsulfonylethyl)pyrazol-4-yl]methyl]spiro[indane-3,4′-piperidine]-1-ol]	≤ 50 nM
Cc1ccc2c(c1)C1(CCN(Cc3cnn(CCO)c3)[C@@H](C)C1)OCC2 (some centres unmarked) [Compound 98]	≤ 50 nM
C[C@H]1C[C@@]2(CCN1Cc1cn(Cc3cn(C4CC4)c(=O)[nH]c3=O)nn1)OCCc1ccc(Cl)cc12 [Compound 189]	≤ 50 nM
CS(=O)(=O)CCn1cc(CN2CCC3(CC2)C(=O)N(CC(F)F)c2ccccc23)cn1 [Compound 73]	≥ 500 nM
NC(=O)C1OC2(CCN(Cc3ccno3)CC2)c2cc(Cl)ccc21 (centres unmarked) [Compound 259]	≥ 500 nM
CN1C(=O)C2(CCN(Cc3cnc(NC(C)(C)CO)nc3)CC2)c2cc(Cl)ccc21 [Compound 40]	50 to 500 nM
C[C@H]1C[C@@]2(CCN1Cc1cn(Cc3ccnc(CO)c3)nn1)OCCc1ccc(Cl)cc12 [Compound 142, (4-((4-(((1R,2′S)-7-chloro-2′-methylspiro[isochromane-1,4′-piperidin]-1′-yl)methyl)-1H-1,2,3-triazol-1-yl)methyl)pyridin-2-yl)methanol]	50 to 500 nM
NC(=O)C1OC2(CCN(Cc3cnn(-c4ccccc4)c3)CC2)c2cc(C(F)(F)F)ccc21 (centres unmarked) [Compound 197]	≤ 50 nM
Cc1ccc2c(c1)C1(CCN(Cc3cnn(C)c3)CC1)SC2 [Compound 304, 5-methyl-1′-[(1-methylpyrazol-4-yl)methyl]spiro[1H-2-benzothiophene-3,4′-piperidine]]	≥ 500 nM
Cc1ccc2c(c1)C1(CCN(Cc3cnn(CCS(C)(=O)=O)c3)CC1)OC2(C)C [Compound 289, 1,1,5-trimethyl-1′-[[1-(2-methylsulfonylethyl)pyrazol-4-yl]methyl]spiro[isobenzofuran-3,4′-piperidine]]	≥ 500 nM
Cc1cc(CN2CCC3(CC2)OC(C(N)=O)c2ccc(Cl)cc23)no1 (centres unmarked) [Compound 265]	≥ 500 nM

Structure (SMILES)	IC50
NC(=O)C1OC2(CCN(Cc3cnn4cccnc34)CC2)c2cc(Cl)ccc21 (centres unmarked) [Compound 228]	50 to 500 nM
C[C@H]1C[C@@]2(CCN1Cc1cnn(C)c1)OCC(O)c1ccc(Cl)cc12 (some centres unmarked) [Compound 131]	≤ 50 nM
CC1(n2cc(CN3CCC4(CC3)OC(C(N)=O)c3ccc(Cl)cc34)cn2)CCS(=O)(=O)C1 (centres unmarked) [Compound 241]	≥ 500 nM
NC(=O)C1OC2(CCN(Cc3cnn(-c4ccccc4)c3)CC2)c2cc(Cl)ccc21 (single isomer, unassigned) [Compound 193, 5-chloro-1′-[(1-phenylpyrazol-4-yl)methyl]spiro[1H-isobenzofuran-3,4′-piperidine]-1-carboxamide]	50 to 500 nM
NC(=O)C1OC2(CCN(Cc3cnc[nH]3)CC2)c2cc(Cl)ccc21 (centres unmarked) [Compound 234]	≤ 50 nM
NC(=O)C1OC2(CCN(Cc3cnccn3)CC2)c2cc(Cl)ccc21 (centres unmarked) [Compound 272]	≥ 500 nM
COCCn1cc(CN2CCC3(CC2)OC(C(N)=O)c2ccc(Cl)cc23)cn1 (centres unmarked) [Compound 236]	50 to 500 nM
Cn1cc(CN2CCC3(CC2)C(=O)Nc2ccc(Cl)cc23)cn1 [Compound 13]	50 to 500 nM
Cc1ncc(CN2CCC3(CC2)OC(C(N)=O)c2ccc(Cl)cc23)o1 (centres unmarked) [Compound 260]	50 to 500 nM
CN1C(=O)C2(CCN(Cc3cnn(CCS(C)(=O)=O)c3)CC2)c2cc(OC(F)F)ccc21 [Compound 85]	≥ 500 nM
CS(=O)(=O)CCn1cc(CN2CCC3(CC2)C(=O)Nc2ccc(Br)cc23)cn1 [Compound 22]	50 to 500 nM
CCO/N=C(\C)c1ccc(CN2CCC3(CC2)C(=O)Nc2ccc(Cl)cc23)cn1 [Compound 12]	50 to 500 nM
NC(=O)C1OC2(CCN(Cc3cnn(-c4ccccn4)c3)CC2)c2cc(Cl)ccc21 (centres unmarked) [Compound 201]	≤ 50 nM
N#Cc1ccc2c(c1)C1(CCN(Cc3cnn(-c4ccccc4)c3)CC1)OC2C(N)=O (centres unmarked) [Compound 203, 5-cyano-1′-[(1-phenylpyrazol-4-yl)methyl]spiro[1H-isobenzofuran-3,4′-piperidine]-1-carboxamide]	≤ 50 nM
NC(=O)c1cnc(CN2CCC3(CC2)OC(C(N)=O)c2ccc(Cl)cc23)cn1 (centres unmarked) [Compound 245]	50 to 500 nM
NC(=O)c1ccc(CN2CCC3(CC2)OC(C(N)=O)c2ccc(Cl)cc23)cc1 (centres unmarked) [Compound 225]	≤ 50 nM
CS(=O)(=O)CCn1cc(CN2CCC3(CC2)CC(N2CCNC2=O)c2ccc(Cl)cc23)cn1 (centres unmarked) [Compound 312, 1-[5-chloro-1′-[[1-(2-methylsulfonylethyl)pyrazol-4-yl]methyl]spiro[indane-3,4′-piperidine]-1-yl]imidazolidin-2-one]	≥ 500 nM
CC(C)(O)[C@H](O)Cn1cc(CN2CCC3(CC2)OC(C(N)=O)c2ccc(Cl)cc23)cn1 (stereo partly drawn) [Compound 278, 5-chloro-1′-[[1-[(2R)-2,3-dihydroxy-3-methyl-butyl]pyrazol-4-yl]methyl]spiro[1H-isobenzofuran-3,4′-piperidine]-1-carboxamide]	≤ 50 nM
COCCN1C(=O)C2(CCN(Cc3cnn(CCS(C)(=O)=O)c3)CC2)c2cc(Cl)ccc21 [Compound 51]	≥ 500 nM
Cc1ccc2c(c1)C1(CCN(Cc3cnn(CC4(C)COC4)c3)CC1)C(=O)N2 [Compound 24]	≥ 500 nM
C[C@H]1C[C@@]2(CCN1Cc1cnn(C3CCS(=O)(=O)C3)c1)OCCc1ccc(Cl)cc12 (some centres unmarked) [Compound 116]	≤ 50 nM
Cc1cc2ncc(CN3CCC4(CC3)OC(C(N)=O)c3ccc(Cl)cc34)cn2n1 (centres unmarked) [Compound 231]	50 to 500 nM
